{
  "source": "patent US11806332B2",
  "about": "“Compositions and methods for inhibition of SARS-CoV-2 viral infections” (priority 2020, dated 2023)",
  "key": {"[1]": {"conditions": "mice, dose as high as 300 mg/kg/day; cited from earlier work"}, "[2]": {"test_system": "SARS-CoV-2", "type": "cell-based", "design": "key: Cytotoxicity; ND: Both cytotoxicity and CPE are not detected.; SARS-CoV-2 induced CPE", "conditions": "Repeat 1 and 2"}, "[3]": {"conditions": "patients, state Cmax; cited from earlier work"}, "[4]": {"test_system": "SARS-CoV-2", "assay": "Live virus-based microneutralization (MN) assay, SARS-CoV-2-induced CPE in Vero E6 cells", "type": "cell-based", "design": "key to SARS-CoV-2 induced CPE in Vero E6 cells: Cytotoxicity; ND: Both cytotoxicity and CPE are not detected.; SARS-CoV-2 induced CPE", "conditions": "for SARS-CoV-2 induced CPE in Vero E6 cells: Repeat 1 and 2"}, "[5]": {"molecular_target": "M^Pro (Severe acute respiratory syndrome coronavirus 2, UniProt P0DTD1)", "type": "biochemical"}},
  "note": "Read-outs that look alike come from different tables or passages of the source.",
  "data": [
    {"compound": "CC(C)COCC(CN(Cc1ccccc1)c1ccccc1)N1CCCC1", "note": "(stereo not drawn) [Bepridil]", "values": [
      {"measurement": "mating behavior and reproductive performance", "setting": "[1]", "result": "did not show alteration in mating behavior and reproductive performance"},
      {"measurement": "SARS-CoV-2 induced CPE in ACE2-expressing A549 cells", "setting": "[2]; bepridil 1.56 μM", "result": "CPE"},
      {"measurement": "SARS-CoV-2 induced CPE in ACE2-expressing A549 cells", "setting": "[2]; bepridil 3.12 μM", "result": "CPE"},
      {"measurement": "Cmax", "setting": "[3]", "result": 3.72, "unit": "µM"},
      {"measurement": "SARS-CoV-2 induced CPE in Vero E6 cells", "setting": "[4]; bepridil 0.16 μM", "result": "CPE"},
      {"measurement": "SARS-CoV-2 induced CPE in Vero E6 cells", "setting": "[4]; bepridil 0.31 μM", "result": "CPE"},
      {"measurement": "SARS-CoV-2 induced CPE in Vero E6 cells", "setting": "[4]; bepridil 0.62 μM", "result": "CPE"},
      {"measurement": "SARS-CoV-2 induced CPE in Vero E6 cells", "setting": "[4]; bepridil 1.25 μM", "result": "CPE"},
      {"measurement": "SARS-CoV-2 induced CPE in Vero E6 cells", "setting": "[4]; bepridil 2.5 μM", "result": "CPE"},
      {"measurement": "SARS-CoV-2 induced CPE in Vero E6 cells", "setting": "[4]; bepridil 50 μM", "result": "C"},
      {"measurement": "SARS-CoV-2 induced CPE in Vero E6 cells", "setting": "[4]; bepridil 100 μM", "result": "C"},
      {"measurement": "SARS-CoV-2 induced CPE in Vero E6 cells", "setting": "[4]; bepridil 200 μM", "result": "C^a and C"}
    ]},
    {"compound": "CC(C)(C)c1ccc(C(=O)CCCN2CCC(OC(c3ccccc3)c3ccccc3)CC2)cc1", "note": "[Ebastine]", "values": [
      {"measurement": "Cytopathogenic effect (CPE)", "setting": "[4]", "result": "observed"}
    ]},
    {"compound": "Cc1cccc(C)c1OCC(=O)N[C@@H](Cc1ccccc1)[C@@H](O)C[C@H](Cc1ccccc1)NC(=O)[C@H](C(C)C)N1CCCNC1=O", "note": "[Lopinavir]", "values": [
      {"measurement": "IC50", "setting": "[5]; 50 nM M^Pro, 10 μM Sub3, mean ± SE, triplicate", "result": "486 ± 2", "unit": "µM"},
      {"measurement": "Hill Slope", "setting": "[5]; Hill coefficient of IC50 curve, four-parameter fit", "result": "29.9 ± 2.4"},
      {"measurement": "Hill Slope", "setting": "[5]; Hill coefficient of IC50 curve, four-parameter fit, listed as lopinavir", "result": "lowest Hill coefficients"}
    ]},
    {"compound": "O=c1[nH]c2ccccc2n1C1CCN(CCCC(c2ccc(F)cc2)c2ccc(F)cc2)CC1", "note": "[Pimozide]", "values": [
      {"measurement": "Cytopathogenic effect (CPE)", "setting": "[4]; Vero E6 cells, all tested concentrations, 0.16 to 200 μM", "result": "observed"}
    ]},
    {"compound": "CCOC(=O)/C=C/[C@H](C[C@@H]1CCNC1=O)NC(=O)[C@@H](CC(=O)[C@@H](NC(=O)c1cc(C)on1)C(C)C)Cc1ccc(F)cc1", "note": "[Rupintrivir]", "values": [
      {"measurement": "Hill Slope", "setting": "[5]", "result": "1.4 ± 0.2"}
    ]}
  ]
}
